For 1 compound, IC50 results are on record in US20120322890A1, “Inhibition of the Survival of Bone Cancer by Cyclohexenone Compounds from Antrodia Camphorata” (Golden Biotechnology Corporation, priority 2009, published 2012).

For the assay, the system named is bone cancer cell line MG-63. Briefly: In vitro survival assay (MTT) for inhibition of bone cancer cells. It counts as cell-based. The conditions noted are these: Homo sapiens, MG-63 cells, 48 hours treatment, absorbance at 570 nm, read-out: IC50 (half inhibition concentration), survival of bone cancer cells. How it is done:
Inhibiting effects of bone cancer cells by cyclohexenone compounds of Antrodia camphorata from example 1 were assessed according to the anticancer-drug screening model of National Cancer Institute (NCI). The compound 4-hydroxy-2,3-dimethoxy-6-methyl-5-(3,7,11-trimethyl-dodeca-2,6,10-trienyl)-cyclohex-2-enone from example 1 was added into the culture media of bone cancer cell line MG-63 to determine the survival rates. Survival of cell was analyzed using MTT assay. MG-63 cell line was an osteoblast-like fibroblast cell line and derived from human osteosarcoma, which had similar cell type and feature with osteoblast.
MTT assay is commonly used to analyze cell proliferation, survival rate of viable cells and cytotoxicity. MTT (3[4,5-dimethylthiazol-2-yl]-2,5-diphenyltetrazolium bromide) is a yellow dye which can be converted to water-insoluble purple formazan on the reductive cleavage of its tetrazolium ring by the succinate tetrazolium reductase in mitochondria of cells. The amount of formazan produced is used to detect the number of viable cells and calculate the survival rates.
The MG-63 cells were cultivated in Dulbecco's modified Eagle's medium (DMEM) supplemented with 10% fetal bovine serum, 100 IU/ml of Penicillin and […] of Streptomycin at 37° C., 5% CO2 for 24 hours. […] The absorbances were measured at 570 nm with an ELISA Reader to determine the survival rates.

Take `COC1=C(OC)C(O)C(C/C=C(\C)CC/C=C(\C)CCC=C(C)C)C(C)C1=O` (stereo not shown) [formula 2, 4-hydroxy-2,3-dimethoxy-6-methyl-5-(3,7,11-trimethyl-dodeca-2,6,10-trienyl)-cyclohex-2-enone]: the IC50 was found to be 2.09 µg/mL.
